# Several values for one entry are separate records, joined by “and”; a condition that tells them apart may be missing. Identical values can stand only once.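 48-hour exposure; five concentrations; linearly interpolated endpoints. Here, GI50 denotes the concentration required for 50% inhibition of growth. TGI: concentration producing complete growth inhibition.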 Where a SMILES comes first, the peptide text is derived from it.
# Legend:
# Assay in all cases: growth of human tumour cells (NCI), 48 h
# HCC-2998 colon = system: HCC-2998 colon
# ACHN renal = system: ACHN renal
# OVCAR-8 ovarian = system: OVCAR-8 ovarian
# A498 renal = system: A498 renal
# UO-31 renal = system: UO-31 renal
# SK-MEL-5 melanoma = system: SK-MEL-5 melanoma
# HCT-116 colon = system: HCT-116 colon
# HCT-15 colon = system: HCT-15 colon
# NCI-H522 lung = system: NCI-H522 lung
# NCI-H460 lung = system: NCI-H460 lung
# SK-MEL-28 melanoma = system: SK-MEL-28 melanoma
# HOP-62 NSCLC = system: HOP-62 NSCLC
SMILES,TGI (HCC-2998 colon),TGI (ACHN renal),TGI (OVCAR-8 ovarian),TGI (A498 renal),TGI (UO-31 renal),TGI (SK-MEL-5 melanoma),TGI (HCT-116 colon),TGI (HCT-15 colon),TGI (NCI-H522 lung),TGI (NCI-H460 lung),TGI (SK-MEL-28 melanoma),TGI (HOP-62 NSCLC),GI50 (HOP-62 NSCLC),GI50 (OVCAR-8 ovarian),GI50 (A498 renal),GI50 (HCT-15 colon),GI50 (NCI-H460 lung),GI50 (SK-MEL-28 melanoma)
Cc1ccc2c(c1CCCC(C)(C)O)C(=O)C(=O)C(C(C)C)=C2O,> 100 µM,> 100 µM,> 100 µM,> 100 µM,> 100 µM,> 100 µM,> 100 µM,> 100 µM,> 100 µM,> 100 µM,> 100 µM,,,,,,,
O=C1C(Cl)C(c2ccccc2)N1n1cnc2ccccc2c1=O (configuration not stated),> 100 µM,> 100 µM,> 100 µM,,> 100 µM,> 100 µM,> 100 µM,> 100 µM,> 100 µM,> 100 µM,> 100 µM,> 100 µM,,,,,,
CN(C)C(=O)OCOC(=O)N(C)C,> 100 µM,,> 100 µM,> 100 µM,> 100 µM,> 100 µM,> 100 µM,> 100 µM,> 100 µM,> 100 µM,> 100 µM,> 100 µM,,,,,,
NC(CCC(=O)NC(CSC(=O)N(O)c1ccc(Br)cc1)C(=O)NCC(=O)O)C(=O)O (configuration not stated),> 100 µM,> 100 µM,> 100 µM,> 100 µM,> 100 µM,> 100 µM,> 100 µM,> 100 µM,> 100 µM,> 100 µM,> 100 µM,> 100 µM,,,,,,
COC(=O)c1ccc(/C=C2\N=C(C)OC2=O)cc1,> 100 µM,> 100 µM,> 100 µM,> 100 µM,,> 100 µM,> 100 µM,> 100 µM,> 100 µM,> 100 µM,> 100 µM,> 100 µM,,,,,,
Cc1ccc2nc(-c3ccc(N)c(I)c3)sc2c1,26.4 µM,> 100 µM,> 100 µM,56 µM,26.2 µM,> 100 µM,> 100 µM,23.2 µM,39.2 µM,> 100 µM,> 100 µM,> 100 µM,,,,,,
CCC(C)C(NC(=O)C(CCCCN)NC(=O)C(NC(=O)C(CCC(N)=O)NC(=O)C(N)CCCNC(=N)N)C(C)CC)C(=O)NC(Cc1c[nH]c2ccccc12)C(=O)NC(Cc1ccccc1)C(=O)NC(CCC(N)=O)C(=O)NC(CC(N)=O)C(=O)NC(CCCNC(=N)N)C(=O)NC(CCCNC(=N)N)C(=O)NC(CCSC)C(=O)NC(CCCCN)C(=O)NC(Cc1c[nH]c2ccccc12)C(=O)NC(CCCCN)C(=O)NC(CCCCN)C(=O)N1CCCC1C(=O)NC(C)C(=O)NC(CCCCN)C(=O)NC(CCCNC(=N)N)C(=O)NC(CCCCN)C(=O)NC(CC(C)C)C(=O)NC(Cc1ccccc1)C(=O)NCC(=O)O (configuration not stated) (H-RQIKIWFQNRRMKWKKPAKRKLFG-OH; configuration not given here),> 25 µM,> 25 µM,> 25 µM,,> 25 µM,> 25 µM,> 25 µM,> 25 µM,> 25 µM,> 25 µM,> 25 µM,> 25 µM,,,,,,
CCOC(=O)c1nc2c(Cl)c3ncccc3cc2[nH]c1=O,43.8 µM,> 100 µM,> 100 µM,> 100 µM,> 100 µM,22.7 µM,> 100 µM,56.5 µM,> 100 µM,65.8 µM,> 100 µM,> 100 µM,,,,,,
O=C1NC(=O)C(CCO)(c2ccccc2)C(=O)N1,> 100 µM,,> 100 µM,> 100 µM,> 100 µM,> 100 µM,> 100 µM,> 100 µM,> 100 µM,> 100 µM,> 100 µM,> 100 µM,,,,,,
COc1ccc2c(c1)CC[C@@H]1[C@@H]2CC[C@]2(C)C(=O)/C(=C/c3ccc(OC)c(OC)c3)C[C@@H]12,> 100 µM,> 100 µM,,> 100 µM,> 100 µM,> 100 µM,> 100 µM,> 100 µM,,> 100 µM,,> 100 µM,,,,,,
Cc1cn(C2CC(ON3C(=O)c4ccccc4C3=O)C(CO)O2)c(=O)[nH]c1=O (configuration not stated),> 10 µM,> 10 µM,> 10 µM,,> 10 µM,,> 10 µM,> 10 µM,> 10 µM,> 10 µM,,,,,,,,
C=CCn1c(=O)n(CC=C)c(=O)n(CC=C)c1=O,> 100 µM,> 100 µM,> 100 µM,> 100 µM,> 100 µM,> 100 µM,> 100 µM,> 100 µM,> 100 µM,> 100 µM,> 100 µM,> 100 µM,,,,,,
COC(CN(C(=O)c1ccccc1)C1CCC2(SCCS2)c2[nH]c3ccccc3c21)OC (configuration not stated),> 100 µM,> 100 µM,> 100 µM,> 100 µM,> 100 µM,> 100 µM,> 100 µM,> 100 µM,65.4 µM,> 100 µM,> 100 µM,> 100 µM,,,,,,
CCCCN1C=CN2c3nc4cc(C)c(C)cc4n3C(C(=O)OC)=C(C(=O)OC)C12 (configuration not stated),> 100 µM,> 100 µM,> 100 µM,,> 100 µM,> 100 µM,> 100 µM,> 100 µM,> 100 µM,> 100 µM,,> 100 µM,,,,,,
COC(=O)C(=C/c1ccc(OC)cc1)/C(C(=O)O)=C(/C)c1ccccc1,> 100 µM,> 100 µM,> 100 µM,> 100 µM,> 100 µM,> 100 µM,> 100 µM,> 100 µM,> 100 µM,> 100 µM,,> 100 µM,,,,,,
C=C1C(=O)O[C@H]2[C@H]1[C@@H](OC(=O)C=C(C)C)CC1=C[C@@H](C[C@@]3(C)O[C@@H]23)OC1=O,34.9 µM,,7.5 µM,26.5 µM and 39.2 µM,20.9 µM,15 µM,16.5 µM,3.97 µM and 11.7 µM,3.08 µM,5.83 µM and 31.8 µM,46 µM and 8.18 µM,52.2 µM and 187 µM,60.9 µM,1.99 µM,21.3 µM,3.46 µM,2.27 µM and 14.9 µM,8.31 µM and 3.23 µM
CCOC(=O)C(N=Nc1ccc(S(N)(=O)=O)cc1)C(C)=O (configuration not stated),> 100 µM,> 100 µM,> 100 µM,> 100 µM,> 100 µM,> 100 µM,> 100 µM,> 100 µM,> 100 µM,> 100 µM,> 100 µM,> 100 µM,,,,,,
Cc1ccc(C2CC(c3ccco3)=NN2c2ccccc2)o1 (configuration not stated),,> 100 µM,> 100 µM,,> 100 µM,> 100 µM,> 100 µM,> 100 µM,> 100 µM,> 100 µM,> 100 µM,> 100 µM,,,,,,
C/C(=C1/CCCC2(N=NCC2c2ccccc2)C1=O)c1ccccc1 (configuration not stated),> 100 µM,> 100 µM,64.2 µM,,> 100 µM,25.3 µM,53.3 µM,> 100 µM,59.6 µM,> 100 µM,73.2 µM,,,,,,,
CCN1CCN(c2ccc(Nc3ccnc4ccc5nn(C)nc5c34)cc2)CC1,26 µM,28 µM,25.3 µM,,26.7 µM,28.5 µM,18.1 µM,27.6 µM,23.6 µM,17.2 µM,30.5 µM,26.4 µM,,,,,,
CC(C)CC1[C@@H](OCc2ccccc2)COS(=O)N1Cc1ccccc1 (some centres not stated),,96.2 µM,> 100 µM,,> 100 µM,> 100 µM,> 100 µM,> 100 µM,,,> 100 µM,> 100 µM,,,,,,
OCC1OC(n2cnc3c2NC=NC[C@H]3O)C(O)C1O (some centres not stated),> 450 µM,,> 450 µM,> 450 µM,> 450 µM,> 71.3 µM,> 450 µM,> 450 µM,> 450 µM,> 450 µM,> 450 µM,> 419 µM,,,,,,
CNC(=S)N/N=C(C)\C(=N/NC(=S)NC)c1ccccc1,> 100 µM,> 100 µM,,,> 100 µM,> 100 µM,> 100 µM,> 100 µM,> 100 µM,> 100 µM,,> 100 µM,,,,,,
O=[N+]([O-])c1ccc(-n2nnc(C3=NCCCN3)c2-c2ccc(Cl)cc2)cc1,> 100 µM,> 100 µM,> 100 µM,> 100 µM,> 100 µM,> 100 µM,> 100 µM,> 100 µM,> 100 µM,> 100 µM,> 100 µM,> 100 µM,,,,,,
COc1cc2c(cc1OC)C(O)[C@H](Br)C(C)(C)O2 (some centres not stated),> 100 µM,> 100 µM,> 100 µM,,> 100 µM,> 100 µM,> 100 µM,> 100 µM,> 100 µM,> 100 µM,> 100 µM,> 100 µM,,,,,,
CCN1c2nc3ccccc3nc2N(CC)c2nc3ccccc3nc21,> 100 µM,> 100 µM,> 100 µM,> 100 µM,> 100 µM,> 100 µM,> 100 µM,> 100 µM,> 100 µM,> 100 µM,> 100 µM,,,,,,,
CC(=O)OCC1OC(Nc2ncc(-c3ccc(C)cc3)s2)C(OC(C)=O)C(OC(C)=O)C1OC(C)=O (configuration not stated),> 62.9 µM,,> 100 µM,> 100 µM,41 µM,> 100 µM,> 62.5 µM,> 100 µM,> 100 µM,> 80.9 µM,> 100 µM,> 100 µM,,,,,,

# From PubChem BioAssay (NCI)
